From patent publication US12661331B2 (priority 2019, dated 2026)

Tested on: PUUV
Parameters: species or system AG129 mice
Conditions: mouse, in vivo

O=C(O)c1ccc(F)c(F)c1Nc1ccc(I)cc1Cl [ATR-002, 2-(2-chloro-4-iodophenylamino)-N-3,4-difluoro benzoic acid]
virus in the kidney: no virus could be detected | virus in the lung: no virus could be detected | virus titer reduction compared to animals treated with solvent only (75 mg/kg/day): complete virus titer reduction
